This note sets out measurements from patent US20240226098A1, “COMPOUNDS AND METHODS FOR MODULATING SPLICING” (REMIX THERAPEUTICS INC., priority 2020, published 2024).

Common to all, as to format: cell-based
The test system of test [1] is HTT mRNA, alternative junction (AJ). Put plainly: Splicing assay (RT-qPCR): increase in HTT alternative junction (AJ) mRNA. Particulars: A673 or K562 cell line, 24 hours treatment, top dose 10 uM; concentration having 50% response in AJ increase. In short, it runs like this: (§1)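 A673 (DMEM, 10% FBS) or K562 (IMDM, 10% FBS) cells treated 24 h at 37 °C with 11-point 3-fold dilutions, top 10 uM, ≤0.25% DMSO. Lysates analysed by one-step RT-qPCR for HTT CJ and AJ isoforms. Normalised to PPIA (A673) or GAPDH/GUSB (K562).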

For test [2], the system named is HTT mRNA, canonical junction (CJ). As to the kind of experiment: Splicing assay (RT-qPCR): decrease in HTT canonical junction (CJ) mRNA. Particulars: A673 or K562 cell line, 24 hours treatment, top dose 10 uM; concentration having 50% response in CJ decrease. In short, it runs like this:
as §1

Another test concerns HTT CJ mRNA. As to the kind of experiment: Gene panel canonical junction qPCR assay: decrease in HTT CJ mRNA. Particulars: protocol as for Table 2, read-out: HTT (IC50, decrease in CJ mRNA levels). The method, boiled down: (§2)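 A673 or K562 cells were treated 24 h at 37 °C with an 11-point 3-fold dilution series (top dose 10 uM final, DMSO ≤0.25%). Lysates went to RT-qPCR for the canonical exon-exon junction transcript, normalized to GAPDH, GUSB or PPIA. Levels were taken as ΔΔCt versus DMSO control and converted to RQ via 2^(−ΔΔCt).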

For a further test, the system named is SMN2 CJ mRNA. As to the kind of experiment: Gene panel canonical junction qPCR assay: decrease in SMN2 CJ mRNA. To be noted: protocol as for Table 2, read-out: SMN2 (IC50, decrease in CJ mRNA levels). The method, boiled down:
as §2

In a further test the test system is Target C CJ mRNA. As to the kind of experiment: Gene panel canonical junction qPCR assay: decrease in Target C CJ mRNA. To be noted: protocol as for Table 2, read-out: Target C (IC50, decrease in CJ mRNA levels). In short, it runs like this:
as §2

Turning to `Cc1cn2cc(NC(=O)c3ccc(N4CCC(N(C)C)C4)c4ccnnc34)cc(F)c2n1` (centres unmarked) [Compound 134, 5-[3-(dimethylamino)pyrrolidin-1-yl]-N-[8-fluoro-2-methylimidazo[1,2-a]pyridin-6-yl]cinnoline-8-carboxamide], the AC50 in test [1] and in test [2] was 1 to 10 µM in each case. Besides, the IC50 with HTT CJ mRNA was 1 to 10 µM; with SMN2 CJ mRNA, less than 0.1 µM; in the test with Target C CJ mRNA, 1 to 10 µM.

In the case of `Cc1cn2cc(NC(=O)c3ccc(N4C[C@H]5C[C@@H]4C5N(C)C)c4ccnnc34)cc(F)c2n1` (stereo partly drawn) [Compound 148, 5-[(1R,4R)-5-(dimethylamino)-2-azabicyclo [2.1.1]hexan-2-yl]-N-[8-fluoro-2-methylimidazo[1,2-a]pyridin-6-yl] cinnoline-8-carboxamide], the AC50 in test [1] and in test [2] was 1 to 10 µM in each case. For the same compound, the IC50 with HTT CJ mRNA, with SMN2 CJ mRNA and in the test with Target C CJ mRNA was 1 to 10 µM in each case.

`Cc1cn2cc(NC(=O)c3ccc(N4CCNC(C)C4)c4ccnnc34)cc(F)c2n1` (stereo in doubt) [Compound 146, N-[8-fluoro-2-methylimidazo[1,2-a]pyridin-6-yl]-5-[(3S)-3-methylpiperazin-1-yl]cinnoline-8-carboxamide]: the AC50 in test [1] and in test [2] was 0.1 to 1 µM each time. For the same compound, the IC50 with HTT CJ mRNA was 0.1 to 1 µM; with SMN2 CJ mRNA, less than 0.1 µM; with Target C CJ mRNA it was more than 10 µM.

For `Cc1cn2cc(NC(=O)c3ccc(N4CCNCC4)c4ccnnc34)ncc2n1` [Compound 120, N-[2-methylimidazo[1,2-a]pyrazin-6-yl]-5-(piperazin-1-yl) cinnoline-8-carboxamide], the concentration at half-maximal activity (AC50) in test [1] and in test [2] was more than 10 µM each time. For the same compound, the IC50 in the test with HTT CJ mRNA is more than 10 µM; in the test with SMN2 CJ mRNA, less than 0.1 µM; with Target C CJ mRNA it was more than 10 µM.

As for `Cc1cn2cc(NC(=O)c3ccc(N4CCNCC4)c4nccnc34)cc(F)c2n1` [Compound 111, N-[8-fluoro-2-methylimidazo[1,2-a]pyridin-6-yl]-8-(piperazin-1-yl) quinoxaline-5-carboxamide], the half-maximal activity concentration (AC50) in test [1] and in test [2] was 1 to 10 µM each time. Besides, the IC50 is 1 to 10 µM in the test on HTT CJ mRNA, less than 0.1 µM with SMN2 CJ mRNA and 0.1 to 1 µM in the test with Target C CJ mRNA.

In the case of `Cc1cn2cc(NC(=O)c3ccc(N4CCNCC4)c4ccnnc34)c(C)cc2n1` [Compound 119, N-[2,7-dimethylimidazo[1,2-a]pyridin-6-yl]-5-(piperazin-1-yl) cinnoline-8-carboxamide], the AC50 in test [1] and in test [2] was 1 to 10 µM in each case. The figures for the IC50 in the test with HTT CJ mRNA, in the test with SMN2 CJ mRNA and in the test on Target C CJ mRNA were 1 to 10 µM, less than 0.1 µM and 1 to 10 µM, respectively.

Consider `Cc1cn2nc(NC(=O)c3ccc(N4CCNCC4)c4ccnnc34)cc2c(C)n1` [Compound 123, N-[4,6-dimethylpyrazolo[1,5-a]pyrazin-2-yl]-5-(piperazin-1-yl)cinnoline-8-carboxamide], for which the AC50 in test [1] and in test [2] was 1 to 10 µM each time. Also, the IC50 with HTT CJ mRNA, in the test on SMN2 CJ mRNA and in the test on Target C CJ mRNA was 1 to 10 µM throughout.

For the compound `Cc1cn2cc(NC(=O)c3ccc(N4CCN(C)C(C)C4)c4ccnnc34)cc(F)c2n1` (stereo in doubt) [Compound 149, 5-[(3S)-3,4-dimethylpiperazin-1-yl]-N-[8-fluoro-2-methylimidazo[1,2-a]pyridin-6-yl]cinnoline-8-carboxamide], the AC50 in test [1] and in test [2] was 1 to 10 µM throughout. Further, the IC50 is 1 to 10 µM in the test with HTT CJ mRNA, less than 0.1 µM with SMN2 CJ mRNA and 1 to 10 µM in the test on Target C CJ mRNA.

Regarding `Cc1cn2cc(NC(=O)c3ccc(N4CCNC(C)C4)c4ccnnc34)cc(F)c2n1` (stereo in doubt) [Compound 147, N-[8-fluoro-2-methylimidazo[1,2-a]pyridin-6-yl]-5-[(3R)-3-methylpiperazin-1-yl]cinnoline-8-carboxamide], the AC50 in test [1] and in test [2] was 1 to 10 µM each time. The IC50 with HTT CJ mRNA was 1 to 10 µM; in the test on SMN2 CJ mRNA, less than 0.1 µM; with Target C CJ mRNA it was 1 to 10 µM.

In the case of `Cc1cn2cc(NC(=O)c3ccc(N4CCN(C)C(C)C4)c4ccnnc34)cc(F)c2n1` (stereo in doubt) [Compound 150, 5-[(3R)-3,4-dimethylpiperazin-1-yl]-N-[8-fluoro-2-methylimidazo[1,2-a]pyridin-6-yl]cinnoline-8-carboxamide], the AC50 in test [1] and in test [2] was 1 to 10 µM in each case. The results for the IC50 in the test on HTT CJ mRNA, in the test on SMN2 CJ mRNA and with Target C CJ mRNA were 1 to 10 µM, less than 0.1 µM and 1 to 10 µM, respectively.
